From PMC2567432 (PLoS ONE, 2008) come the findings set out here.

The subject of series [1] is JIMT-1 cells. Put plainly: Cellular ATP content (CellTiter-Glo), JIMT-1. In kind it is cell-based, human. As to conditions: JIMT-1, 6 h; curcumin 0–100 µM, MGO 0–1000 µM. The method, then: Cellular ATP content was determined using the CellTiter-Glo® Luminescent Cell Viability Assay. Data represent the mean±S.D. of independent experiments (n = 12).
Cell ATP content was determined by means of the CellTiter-Glo® Luminescent Cell Viability Assay according to the manufacturer's instructions (Promega, Madison, USA). […] After 6-h incubation, cells were mixed with test reagents and luminescence was read according to the manufacturer's instructions. A standard curve was prepared from ATP (1 µM to 10 nM) in medium.

The subject of series [2] is brain astrocytoma 1321N1 cells. Put plainly: Cell proliferation WST-1 assay, 1321N1. In kind it is cell-based. The method, then:
Figure 3 Growth inhibition of different tumor cell lines by polyphenols. […] Following 24-h incubation, cell proliferation was evaluated using the WST-1 assay.
Tumor cells were cultured in RPMI medium containing 10% fetal calf serum (RPMI-FCS) (PC-3, JIMT-1, MDA-MD 231) or in DMEM-FCS (astrocytoma 1321N1 cells) containing penicillin/streptomycin (100 U penicillin/ml; 100 µg streptomycin/ml) at 37°C/5% CO2. Cytosolic protein extracts of tumor cells were prepared using extraction buffer composed of 25 mM Tris, 2 mM EDTA, 10% Glycerol, 1% Triton ×100, 2 mM DTT, 1mM PMSF, pH. 7.0 containing 0.3% protease inhibitor cocktail. Protein content was determined according to Bradford. Specific activity of enzymes analyzed in cell extracts was expressed as U/mg protein.
Cell proliferation/vitality of tumor cells (96-well plates; 5000 cells/well) and primary human hepatocytes (24-well plates; 0.25×10^6 cells/well) was assayed using the WST-1 assay according to manufacturer's instructions. Trypan blue exclusion was performed by staining cells with 0.4% aqueous trypan blue solution according to the manufacturer's instructions.
(Tetrazolium dyes change colour on reduction, which living cells bring about.)

Series [3] concerns the target T1, glyoxalase 1 (Glo1) (Homo sapiens, UniProt Q04760).
T1 construct: Glo1 was purified from human erythrocytes as described earlier; from tissue; host or cells: human erythrocytes
T1 sequence (Q04760 2-184 limits assumed): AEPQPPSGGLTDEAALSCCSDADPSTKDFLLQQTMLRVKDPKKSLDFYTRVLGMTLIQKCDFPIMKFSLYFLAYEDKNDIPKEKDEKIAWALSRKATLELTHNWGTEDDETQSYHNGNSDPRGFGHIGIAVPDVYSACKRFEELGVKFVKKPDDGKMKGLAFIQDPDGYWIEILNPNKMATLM
Put plainly: Inhibition of purified glyoxalase 1 activity (Dixon plot). The class given is biochemical. The settings on record: Dixon plot / model fit. As to the method:
Purified Glo1 (70 mU) was incubated with increasing concentrations of different polyphenols at three substrate concentrations; and enzyme activity was recorded (n = 3). The inhibitor concentration was plotted vs. the reciprocal of enzyme activity (1/v) in Dixon plots.
Glo1 was purified from human erythrocytes as described earlier. Briefly, erythrocytes were treated with butanol/chloroform to denature hemoglobin followed by acetone and ammonium sulphate fractionation.
The determination of Glo1 (E.C.4.4.1.5) activity has been described previously. […] The inhibition constant, Ki value of the inhibitors was evaluated by Dixon plot showing the reciprocal of enzyme velocity against the inhibitor concentration at variable concentrations of the substrate. Human Glo2 (E.C.3.1.2.6) was measured using the substrate S-lactoylglutathione as described earlier.
A goodness-of-fit criterion (Akaike's information criterion, AIC) was used for falsification of incompatible inhibition models. […] Spearman's rank correlation test was applied to evaluate the correlation between the IC50 values of pro-inflammatory cytokine release and the Ki-values of various polyphenols. Data were presented as means±S.D. of at least three independent experiments. […] In all other tests, significance has been considered at values of p<0.05.

For series [4], the system named is 1321N1 cells. Put plainly: Glutathione (GSH) level in cytosolic extract, 1321N1. In kind it is cell-based. As to conditions: 1321N1, 50 µM, 24 h. As to the method: (§1) Cells were harvested and GSH concentration was determined in the cytosolic extract. Data represent the mean±S.D. of independent experiments (n = 6).
(§2) GSH was determined using DTNB method. Briefly, cytosolic extract of tumor cells were precipitated by 5% sulfosalicylic acid neutralization, aliquots were mixed with DTNB and absorbance was read at 412 nm against a standard solution of GSH.

The subject of series [5] is JIMT-1 cells. Put plainly: Glutathione (GSH) level in cytosolic extract, JIMT-1. As to conditions: JIMT-1, 50 µM, 24 h. The class given is cell-based, human. The method, then:
as §1, §2

The subject of series [6] is IL-1β release from LPS-stimulated blood cells. Put plainly: Whole blood assay, LPS-induced IL-1β release (cytometric bead array). In kind it is cell-based. The settings on record: Homo sapiens; heparinized whole blood, LPS 10 ng/ml, 6 h, 37°C. As to the method:
Figure 2 Effect of polyphenols on IL-1β release from LPS-stimulated blood cells. Heparinized whole blood was stimulated by LPS in the absence or presence of polyphenols at increasing concentrations and incubated for 6 h at 37°C with 5% CO2. (A) Released IL-1β as measured in cell supernatants. Samples without additives but LPS were set at 100%. (B) The calculated […] values of the respective polyphenols. Data represent mean±S.D. of independent experiments (n = 6).
Whole blood assay was performed as previously described. Accordingly, LPS (10 ng/ml), test substances and 200 µl heparinized human blood of healthy donors, obtained from the blood bank of the University of Leipzig, were co-incubated with serum-free medium (RPMI-SF, 1 ml final volume) in 24-well culture plates for 6 h at 37°C with 5% CO2. Samples were removed, centrifuged at 2000×g for 10 min and supernatants were stored at −20°C until assaying for inflammatory cytokines.
Assessment of cytokine levels in supernatants of human blood cell cultures was accomplished using Cytometric Bead Array (CBA™, BD Biosciences, San Jose, U.S.A). The procedure was carried out according to the manufacturer's instruction. Fluorescence measurement and analysis were performed using a FACSCalibur and the CellQuest software (BD Biosciences).

Series [7] relates to 1321N1 cells. The experiment in a line: Cell vitality by trypan blue exclusion. In kind it is cell-based. The settings on record: 50 µM, 6-h incubation; control 95.6%±2.5%.
Text: (B) Cell vitality as assayed by the trypan blue exclusion test. Data represent the mean±S.D. of independent experiments (n = 6).
Series [8] relates to Glo1 in JIMT-1 cells. Put plainly: Glo1 protein content by Western blot. In kind it is cell-based, human. As to conditions: JIMT-1, 24 h. As to the method:
Cells were harvested and the specific activity of Glo1 and LDH was determined in the cytosolic extract. (B) Semi-quantitative analysis of protein content as performed by Western blot using specific antibodies against β-actin and Glo1. The blot was developed by chemoluminescense detection. […] Data represent the mean±S.D. of independent experiments (n = 6).
An amount of 20 µg to 40 µg of cytosolic extract was loaded to SDS-pore gradient gels (4 to 20%) and run under reducing conditions. Proteins were blotted to cellulose nitrate membranes (Whatman Schleicher & Schuell, Dassel, Germany) and Glo1 was detected by anti-Glo1 monoclonal antibodies (1 µg/ml) (BioMac, Leipzig, Germany) in combination with goat anti-mouse Ig-HRP (1∶1000) (Dako, Hamburg, Germany). For comparison, β-actin was analyzed using rabbit anti-β-actin Ig (1∶2000) (Acris, Hiddenhausen, Germany) in conjunction with HRP-labeled goat anti-rabbit Ig (Dianova, Hamburg, Germany). Band visualization was performed by chemiluminescence detection (Boehringer, Mannheim, Germany).
In general terms: Immunoblotting shows a protein as a band on a membrane.

A word on the inhibition: it is the drop in the measured response relative to a control, in per cent. A lower inhibition goes with a response near the control. As usually defined, the IC50 is the concentration at which inhibition is half-maximal. The low end stands for greater potency in that assay, the high end for weaker potency in that assay. Take `COc1cc(C=CC(=O)CC(=O)C=Cc2ccc(O)c(OC)c2)ccc1O` [curcumin, 1,7-bis(4-hydroxy-3-methoxyphenyl)-1,6-heptadiene-3,5-dione]: the “cellular ATP content” value in series [1] is on record as “decreased cellular ATP in a concentration-dependent manner”. The “concentration giving strong anti-proliferative effects” value in series [2] (1321N1, 24 h, WST-1) is listed as “above 50 µM”. This molecule showed an inhibition at 50 µM in series [2] (Homo sapiens, 1321N1, 50 µM, 24 h) of roughly 30%. In series [3], the “mode of enzyme inhibition” value is “competitive”. For the same molecule, the “GSH diminished by” value in series [4] and in series [5] was “approximately 20%” in each case. The same molecule came in with an IC50 in series [6] of 7.9 µM. Also, the “percentage of vital cells (trypan blue exclusion)” value in series [7] is recorded as 89.5%±2.5%. Also, the “Glo1 protein content (Western blot)” value in series [8] is listed as “no alteration”.
